Data from ChEMBL document CHEMBL1201862, “PubChem BioAssay data set” (2004).
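Five compound concentrations were applied to cells in 96-well plates for 48 hours; endpoints were derived by simple linear interpolation of the resulting dose-response curve. GI50: concentration for 50% inhibition of growth.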 Activity calls are given as the source filed them. No stated cut-off is given here; in the data, active = GI50 up to about 1.1 µM and inactive = higher.

Legend:
Test in all cases: DTP human tumour cell line panel, 48 h
[1] = system: SR
[2] = system: SNB-75
[3] = system: HOP-92
[4] = system: OVCAR-8
[5] = system: OVCAR-3
[6] = system: TK-10
[7] = system: COLO 205
[8] = system: SN12C
[9] = system: MOLT-4
[10] = system: RXF 393
[11] = system: NCI-H522
[12] = system: HL-60
[13] = system: SNB-19
[14] = system: NCI-H23
[15] = system: KM-20L2
[16] = system: CCRF-CEM
[17] = system: HCT-116

Measured: GI50

C/C(=C1/CCCC2(N=NCC2c2ccccc2)C1=O)c1ccccc1 (stereo unspecified)
inactive: [1] 14 µM | [2] 30.3 µM | [3] 24.2 µM | [4] 21.3 µM | [5] 17.6 µM | [6] 42.7 µM | [7] 16.5 µM | [8] 40.5 µM | [9] 14.4 µM | [10] 25.4 µM | [11] 14.8 µM | [12] 8.95 µM | [13] 66.4 µM | [14] 16.6 µM | [15] 25.6 µM | [16] 19.6 µM | [17] 18.7 µM

Fc1cccc2c1cc1ccc3cccc4ccc2c1c34
inactive: [1] 60.5 µM | [2] > 100 µM | [3] > 100 µM | [4] > 100 µM | [5] > 100 µM | [6] 60.1 µM | [7] > 100 µM | [8] > 100 µM | [9] > 100 µM | [10] > 100 µM | [11] > 100 µM | [12] > 100 µM | [13] > 100 µM | [14] > 100 µM | [15] > 100 µM | [16] > 100 µM | [17] > 100 µM

C1OC1CN1CCN(CC2CO2)CC1 (stereo unspecified)
inactive: [1] 2.42 µM | [2] 38.2 µM | [3] 80.9 µM | [4] > 75.7 µM | [5] > 100 µM | [6] > 100 µM | [7] > 100 µM | [8] 32.1 µM | [9] 3.28 µM | [10] > 100 µM | [11] > 100 µM | [12] 4.85 µM | [13] > 100 µM | [14] 22.1 µM | [15] > 100 µM | [16] 2.49 µM | [17] 72.8 µM

CCOC(=O)C1N(S(=O)(=O)c2ccc(C)cc2)CCC12c1ccccc1NC2c1ccc(OC)c(OC)c1 (stereo unspecified)
inactive: [1] 22 µM | [2] > 100 µM | [3] 10.7 µM | [4] > 100 µM | [5] > 100 µM | [6] > 100 µM | [7] > 100 µM | [8] > 100 µM | [10] > 100 µM | [11] > 100 µM | [12] 27.7 µM | [13] > 100 µM | [14] > 100 µM | [15] > 100 µM | [16] 80.5 µM | [17] 60.7 µM

O=C(CCC(=O)Nc1ccc(Cl)cc1)CC(=O)c1ccc2ccccc2c1
inactive: [1] > 100 µM | [2] > 100 µM | [3] > 100 µM | [4] > 100 µM | [5] > 100 µM | [6] > 100 µM | [7] > 100 µM | [8] > 100 µM | [9] > 100 µM | [10] > 100 µM | [11] > 100 µM | [12] > 100 µM | [13] > 100 µM | [14] > 100 µM | [15] > 100 µM | [16] > 100 µM | [17] > 100 µM

O=C1C=C(O)C(=Cc2c(O)cc(O)cc2O)C(O)=C1
inactive: [1] > 100 µM | [2] > 100 µM | [3] > 100 µM | [4] > 100 µM | [5] > 100 µM | [6] > 100 µM | [7] > 100 µM | [8] > 100 µM | [9] > 100 µM | [10] > 100 µM | [11] > 100 µM | [12] > 100 µM | [13] > 100 µM | [14] > 100 µM | [15] > 100 µM | [16] > 100 µM | [17] > 100 µM
